Reference: US4595689A, “4-(8-bromodibenz[b,f]oxepin-10-yl)-1,2,3,6-tetrahydro-1-methylpyridine and 4-(2-bromodibenzo[a,d]cyclophetatriene-11-yl)-1,2,3,6-tetrahydro-1-methy lpyridine for dermal inflammation” (Hoffmann-LaRoche Inc., priority 1984, dated 1986)

Test system: cantharidin-induced inflammation of rat ear
Assay: Cantharidin induced inflammation in the rat (topical activity, ear skin punch weight)
Type: in vivo, rat (Charles River CD, 21-day-old male)
Details: topical dose 100 μg, with 400 μg cantharidin in 0.1 ml vehicle on rat ears; 72 hours
Protocol: CANTHARIDIN INDUCED INFLAMMATION IN THE RAT
A solvent vehicle was prepared which was used to apply cantharidin or cantharidin and test compound to rats. The solvent vehicle was a solution of 1 part ethanol, 1.5 parts collodion, 2 parts acetone and 3 parts diethylether. When it was desired to apply cantharidin to rats, cantharidin was added to the solvent vehicle in such an amount that there were 400 μg of cantharidin in 0.1 ml of solvent vehicle. When it was desired to apply cantharidin and test compound to rats, cantharidin and test compound were added to the solvent vehicle in such amounts that there were both 400 μg of cantharidin and 100 μg of test compound in 0.1 ml of solvent vehicle. Cantharidin or cantharidin plus the test compound at a dose of 100 μg were applied topically to the outer surface of the ears of Charles River CD 21-day-old male rats in a volume of 0.1 ml of solvent vehicle described above. Separate groups of rats were treated with solvent vehicle alone, cantharidin alone, and cantharidin plus test compound. Autopsy was carried out 72 hours after cantharidin administration. Uniform punches were obtained through the site of application and weighed. Weight changes reflect effects on both the fluid and tissue components of the inflammatory process. […]

CN1CC=C(C2=Cc3ccccc3Cc3ccc(Br)cc32)CC1 [4-(2-bromodibenzo[a,d]cycloheptatriene-11-yl)-1,2,3,6-tetrahydro-1-methylpyridine]
% Inhibition of Inflammation: 37%

CN1CC=C(C2=Cc3ccccc3Oc3ccc(Br)cc32)CC1 [4-(8-bromodibenz[b,f]oxepin-10-yl)-1,2,3,6-tetrahydro-1-methylpyridine]
% Inhibition of Inflammation: 36%
